Measured values: PubChem BioAssay (NCI)
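At the GI50, growth is halved. TGI: concentration producing complete growth inhibition.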

Tests used:
Assay in all cases: NCI anticancer screen, dose series, 384-well format
786-0 renal = test system: 786-0 renal
A498 renal = test system: A498 renal
A549 NSCLC = test system: A549 NSCLC
ACHN renal = test system: ACHN renal
BT-549 breast = test system: BT-549 breast
CAKI-1 renal = test system: CAKI-1 renal
CCRF-CEM leukemia = test system: CCRF-CEM leukemia
COLO 205 colon = test system: COLO 205 colon
DU-145 prostate = test system: DU-145 prostate
HCC-2998 colon = test system: HCC-2998 colon
HCT-116 colon = test system: HCT-116 colon
HCT-15 colon = test system: HCT-15 colon
HL-60(TB) leukemia = test system: HL-60(TB) leukemia
HOP-62 NSCLC = test system: HOP-62 NSCLC
HOP-92 NSCLC = test system: HOP-92 NSCLC
HT29 colon = test system: HT29 colon
IGROV1 ovarian = test system: IGROV1 ovarian
K-562 leukemia = test system: K-562 leukemia
KM12 colon = test system: KM12 colon
LOX IMVI melanoma = test system: LOX IMVI melanoma
M14 melanoma = test system: M14 melanoma
MALME-3M melanoma = test system: MALME-3M melanoma
MCF7 breast = test system: MCF7 breast
MDA-MB-231 breast = test system: MDA-MB-231 breast
MDA-MB-435 melanoma = test system: MDA-MB-435 melanoma
MDA-MB-468 breast = test system: MDA-MB-468 breast
MOLT-4 leukemia = test system: MOLT-4 leukemia
NCI-H226 lung = test system: NCI-H226 lung
NCI-H23 lung = test system: NCI-H23 lung

**Q.** What does the source list for `COc1ccc(CC(NC(=O)[C@H](C)NC(=O)CN2CCOCC2)C(=O)N[C@@H](Cc2ccccc2)C(=O)[C@@]2(C)CO2)cc1` (some centres not stated)?
**A.** GI50 ([…]-0 renal): 297 nM; TGI (786-0 renal): 1030 nM; GI50 (A498 renal): 226 nM; TGI (A498 renal): 545 nM; GI50 (A549 NSCLC): 319 nM; TGI (A549 NSCLC): 1080 nM; GI50 (ACHN renal): 509 nM; TGI (ACHN renal): 1690 nM; GI50 (BT-549 breast): 175 nM; TGI (BT-549 breast): 316 nM; GI50 (CAKI-1 renal): 271 nM; TGI (CAKI-1 renal): 765 nM; GI50 (CCRF-CEM leukemia): 37.4 nM; TGI (CCRF-CEM leukemia): 137 nM; GI50 (COLO 205 colon): 304 nM; TGI (COLO 205 colon): 1010 nM; GI50 (DU-145 prostate): 302 nM; TGI (DU-145 prostate): 861 nM; GI50 (HCC-2998 colon): 173 nM; TGI (HCC-2998 colon): 312 nM; GI50 (HCT-116 colon): 167 nM; TGI (HCT-116 colon): 309 nM; GI50 (HCT-15 colon): 1810 nM; TGI (HCT-15 colon): 3390 nM; GI50 (HL-60(TB) leukemia): 147 nM; TGI (HL-60(TB) leukemia): 280 nM; GI50 (HOP-62 NSCLC): 184 nM; TGI (HOP-62 NSCLC): 331 nM; GI50 (HOP-92 NSCLC): 149 nM; TGI (HOP-92 NSCLC): 294 nM; GI50 (HT29 colon): 181 nM; TGI (HT29 colon): 330 nM; GI50 (IGROV1 ovarian): 255 nM; TGI (IGROV1 ovarian): 647 nM; GI50 (K-562 leukemia): 224 nM; TGI (K-562 leukemia): 468 nM; GI50 (KM12 colon): 165 nM; TGI (KM12 colon): 308 nM; GI50 (LOX IMVI melanoma): 209 nM; TGI (LOX IMVI melanoma): 355 nM; GI50 (M14 melanoma): 142 nM; TGI (M14 melanoma): 278 nM; GI50 (MALME-3M melanoma): 136 nM; TGI (MALME-3M melanoma): 281 nM; GI50 (MCF7 breast): 138 nM; TGI (MCF7 breast): 382 nM; GI50 (MDA-MB-231 breast): 166 nM; TGI (MDA-MB-231 breast): 309 nM; GI50 (MDA-MB-435 melanoma): 141 nM; TGI (MDA-MB-435 melanoma): 281 nM; GI50 (MDA-MB-468 breast): 180 nM; TGI (MDA-MB-468 breast): 324 nM; GI50 (MOLT-4 leukemia): 15.5 nM; TGI (MOLT-4 leukemia): 28.9 nM; GI50 (NCI-H226 lung): 60.5 nM; TGI (NCI-H226 lung): 186 nM; GI50 (NCI-H23 lung): 210 nM
